Laboratory results: article PMC9469100, “Turning Nonselective Inhibitors of Type I Protein Arginine Methyltransferases into Potent and Selective Inhibitors of Protein Arginine Methyltransferase 4 through a Deconstruction–Reconstruction and Fragment-Growing Approach” (Journal of Medicinal Chemistry, 2022)
Where two headings read alike, the source gives them in different places.

Key:
[1] = target: T1, human PRMT4 (full length) (Homo sapiens, UniProt Q86X55); experiment: SPR binding to immobilized PRMT4
T1 construct: Full-length recombinant PRMT4 (Active motif, # 81107); purchased Active motif # 81107
T1 sequence (Q86X55 1-608): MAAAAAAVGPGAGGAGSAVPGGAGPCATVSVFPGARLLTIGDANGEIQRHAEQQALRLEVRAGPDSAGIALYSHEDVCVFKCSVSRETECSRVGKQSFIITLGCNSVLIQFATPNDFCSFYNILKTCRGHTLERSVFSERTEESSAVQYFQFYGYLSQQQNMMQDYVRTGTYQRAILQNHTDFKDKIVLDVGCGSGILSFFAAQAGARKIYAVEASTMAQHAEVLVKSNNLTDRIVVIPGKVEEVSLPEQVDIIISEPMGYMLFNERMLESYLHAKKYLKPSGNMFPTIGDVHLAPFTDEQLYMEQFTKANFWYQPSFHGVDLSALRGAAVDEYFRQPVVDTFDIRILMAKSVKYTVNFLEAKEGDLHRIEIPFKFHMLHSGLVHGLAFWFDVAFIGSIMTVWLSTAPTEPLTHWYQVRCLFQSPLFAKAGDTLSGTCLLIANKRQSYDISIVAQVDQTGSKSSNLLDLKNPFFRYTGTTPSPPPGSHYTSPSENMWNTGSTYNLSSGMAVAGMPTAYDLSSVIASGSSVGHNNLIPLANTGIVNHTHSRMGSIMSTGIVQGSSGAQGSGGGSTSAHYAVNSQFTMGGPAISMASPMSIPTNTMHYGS
Method: To this aim, human PRMT4 (full length) was covalently immobilized on a sensor chip surface using an amine-coupling approach, and the three compounds were injected at different concentrations over the protein surface. To reduce false positives from detergent-sensitive, nonspecific aggregation-based binding, detergents (0.05% Tween-20) were added to the running buffer in all experiments.
SPR experiments were performed on a Biacore T200 biosensor (Cytiva). PBS buffer (phosphate-buffered saline, pH 7.4) supplemented with 0.05% Tween-20 was used as the running buffer. […] One flow cell was left empty for background subtractions. […] Each compound was tested in […], prepared starting from 640 to 10 nM. Binding experiments were performed at 25 °C by using a flow rate of 30 μL/min, with 90 s monitoring of association and 90 s monitoring of dissociation. Regeneration of the surfaces was performed, when necessary, by a 10 s injection of 5 mM NaOH. […] The corrected sensorgrams for each compound were fitted simultaneously using a 1:1 Langmuir model to obtain equilibrium dissociation constants (KD) and kinetic dissociation (koff) and association (kon) constants.

PRMT1 = PRMT1 (Homo sapiens, UniProt Q99873); experiment: AlphaLISA PRMT1 activity assay (H4R3me); conditions: for IC50: AlphaLISA, hPRMT1, 10-concentration mode, threefold dilutions starting at 100 μM; for LE: ligand efficiency calculated from PRMT1 IC50 as a surrogate for KD
Method: Then, we resolved to determine their effect on the catalytic activity of human recombinant PRMT1, chosen as representative of class I PRMTs. […] PRMT1 activity assays were performed by taking advantage of the AlphaLISA homogeneous proximity assay.
The reaction was incubated for 60 min, and then it was stopped by the addition of 5 μL of antimethyl-histone H4 arginine 3 (H4R3me) AlphaLISA acceptor beads (PerkinElmer, #AL150) (final concentration, 20 μg/mL) diluted in Epigenetic Buffer 1X (PerkinElmer, #AL008).
For each incubation step, the OptiPlate was sealed with protective foil to prevent evaporation and contamination. Donor and acceptor beads were added in subdued light.
The 100% activity (positive control) was reached using the vehicle (DMSO) while the 0% activity (negative control) was obtained without the protein. Data were analyzed using Excel software. Values obtained for each compound are mean ± SD determined for three separate experiments.

[2] = read-out: % PRMT1 residual activ. @ 100 μM
[3] = read-out: % PRMT1 residual activity at 100 uM

Sequence of PRMT1 (Q99873 whole entry): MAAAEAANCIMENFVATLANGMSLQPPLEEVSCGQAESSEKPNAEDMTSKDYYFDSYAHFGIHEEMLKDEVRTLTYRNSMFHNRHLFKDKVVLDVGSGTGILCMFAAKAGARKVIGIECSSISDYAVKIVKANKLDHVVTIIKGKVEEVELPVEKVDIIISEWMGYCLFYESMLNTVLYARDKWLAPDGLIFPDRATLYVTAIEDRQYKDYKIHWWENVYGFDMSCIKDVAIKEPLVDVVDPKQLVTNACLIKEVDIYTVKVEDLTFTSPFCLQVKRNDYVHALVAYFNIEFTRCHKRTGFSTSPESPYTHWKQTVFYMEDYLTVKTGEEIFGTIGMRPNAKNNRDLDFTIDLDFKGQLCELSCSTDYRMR

Row | remaining activity at 100 µM (PRMT1; [2]) [%] | remaining activity at 100 µM (PRMT1; [3]) [%] | Compound | also measured
1 | – | – | C[S+](CC[C@H](N)C(=O)[O-])C[C@H]1O[C@@H](n2cnc3c(N)ncnc32)[C@H](O)[C@@H]1O (stereo partly drawn) [SAM, S-adenosyl-L-methionine, reference compound] | Kd [1]: 0.0096 µM; koff ([1]; SPR, immobilized PRMT4): 0.003 s⁻¹; kon ([1]; SPR, immobilized PRMT4, read-out: kon): 290000 M⁻¹ s⁻¹; τR ([1]; in vitro residence time, τ = 1/koff): 333.3 s
2 | 25.1 ± 1.5 | 25.1 ± 1.5 | O=C(CCCCNC1=NCCN1)Nc1ccc2cc(C(=O)O)cc(O)c2c1 [6f, 6-(5-((4,5-Dihydro-1H-imidazol-2-yl)amino)pentanamido)-4-hydroxy-2-naphthoic Acid] | –
3 | 36.9 ± 10.5 | 36.9 ± 10.5 | O=C(NCCCn1ccnc1)Nc1ccc2cc(C(=O)O)cc(O)c2c1 [8b, 6-(3-(3-(1H-Imidazol-1-yl)propyl)ureido)-4-hydroxy-2-naphthoic Acid] | –
4 | 92.1 ± 15.8 | 92.1 ± 15.8 | COC(=O)c1cc(O)c2cc(NC(=O)[C@@H](N)CCSC)ccc2c1 [9c, Methyl (S)-6-(2-Amino-4-(methylthio)butanamido)-4-hydroxy-2-naphthoate] | –
5 | 50.4 ± 0.2 | 50.4 ± 0.2 | CNC(=N)NCCCCCC(=O)Nc1ccc2cc(C(=O)O)cc(O)c2c1 [6d, 4-Hydroxy-6-(6-(3-methylguanidino)hexanamido)-2-naphthoic Acid] | –
6 | 31.5 ± 3.1 | 31.5 ± 3.1 | N=C(N)NCCCCNC(=O)Nc1ccc2cc(C(=O)O)cc(O)c2c1 [8a, 6-(3-(4-Guanidinobutyl)ureido)-4-hydroxy-2-naphthoic Acid] | –
7 | 35 ± 0.3 | 35 ± 0.3 | COC(=O)c1cc(O)c2cc(NC(=O)CCCCNC(=N)N)ccc2c1 [5a, Methyl 6-(5-Guanidinopentanamido)-4-hydroxy-2-naphthoate] | –
8 | -0.91 ± 0.1 | -0.91 ± 0.1 | COC(=O)c1cc(O)c2cc(NC(=O)NCCCCCNC(=N)N)ccc2c1 [7c, Methyl 6-(3-(5-Guanidinopentyl)ureido)-4-hydroxy-2-naphthoate] | IC50 (PRMT1): 1.2 µM; LE (PRMT1): 0.30
9 | 75.9 ± 4.8 | 75.9 ± 4.8 | COC(=O)c1cc(O)c2cc(NC(=O)[C@H](CCSC)NC(=O)Nc3ccc(OC)cc3)ccc2c1 [9d, Methyl (S)-4-Hydroxy-6-(2-(3-(4-methoxyphenyl)ureido)-4-(methylthio)butanamido)-2-naphthoate] | –
10 | 0.2 ± 0.1 | 0.2 ± 0.1 | CNC(=N)NCCCNC(=O)Nc1ccc2cc(C(=O)OC)cc(O)c2c1 [7d, Methyl 4-Hydroxy-6-(3-(3-(3-methylguanidino)propyl)ureido)-2-naphthoate] | IC50 (PRMT1): 0.4 µM; LE (PRMT1): 0.33
11 | 65.9 ± 1 | 65.9 ± 1 | N=C(N)NCCCCCC(=O)Nc1ccc2cc(C(=O)O)cc(O)c2c1 [6b, 6-(6-Guanidinohexanamido)-4-hydroxy-2-naphthoic Acid] | –
12 | 87.1 ± 2.9 | 87.1 ± 2.9 | COC(=O)c1cc(O)c2cc(NC(=O)CNC(=O)Nc3ccc(OC)cc3)ccc2c1 [10c, Methyl 4-Hydroxy-6-(2-(3-(4-methoxyphenyl)ureido)acetamido)-2-naphthoate] | –
13 | 69.7 ± 2 | 69.7 ± 2 | N=C(N)NCCCCC(=O)Nc1ccc2cc(C(=O)O)cc(O)c2c1 [6a, 6-(5-Guanidinopentanamido)-4-hydroxy-2-naphthoic Acid] | –
14 | -0.49 ± 0.1 | -0.49 ± 0.1 | COC(=O)c1cc(O)c2cc(NC(=O)CCCCCCNC(=N)N)ccc2c1 [5c, Methyl 6-(7-Guanidinoheptanamido)-4-hydroxy-2-naphthoate] | IC50 (PRMT1): 3.8 µM; LE (PRMT1): 0.27
15 | 36.8 ± 0.3 | 36.8 ± 0.3 | CN(C)C(=N)NCCCCC(=O)Nc1ccc2cc(C(=O)O)cc(O)c2c1 [6e, 6-(5-(3,3-Dimethylguanidino)pentanamido)-4-hydroxy-2-naphthoic Acid] | –
16 | 122 ± 5.8 | 122 ± 5.8 | COC(=O)c1cc(O)c2cc(NC(=O)CCCCNC3=NCCN3)ccc2c1 [5g, Methyl 6-(5-((4,5-Dihydro-1H-imidazol-2-yl)amino)pentanamido)-4-hydroxy-2-naphthoate] | –
17 | 0.4 ± 0.1 | 0.4 ± 0.1 | COC(=O)c1cc(O)c2cc(NC(=O)NCCCNC(=N)N)ccc2c1 [7a, Methyl 6-(3-(3-Guanidinopropyl)ureido)-4-hydroxy-2-naphthoate] | IC50 (PRMT1): 1.6 µM; LE (PRMT1): 0.31
18 | 34.2 ± 5.1 | 34.2 ± 5.1 | COC(=O)c1cc(O)c2cc(NC(=O)[C@@H](N)CCCNC(=N)N)ccc2c1 [11c, Methyl (S)-6-(2-Amino-5-guanidinopentanamido)-4-hydroxy-2-naphthoate] | –
19 | 65.6 ± 2.1 | 65.6 ± 2.1 | COC(=O)c1cc(O)c2cc(NC(=O)NCCCn3ccnc3)ccc2c1 [7f, Methyl 6-(3-(3-(1H-Imidazol-1-yl)propyl)ureido)-4-hydroxy-2-naphthoate] | –
